The results in this text go back to patent publication US12522634B2, “Cyclophilin inhibitors and uses thereof” (Farsight Medical Technology (Shanghai) Co., Ltd., priority 2020, dated 2026).

Read-outs that look alike come from different tables or passages of the source. Starred links: 1 amine or outer side, 2 acyl side, 3 side chain; linkers in the order of their positions; H or OH if unused. Non-standard residues stand in square brackets, D forms with d. Residues, ends and D or L forms follow the SMILES beside them. ξ: configuration not given here. NMeBmt(3-oxo) = C/C=C/C[C@@H](C)C(=O)[C@H](NC)C(=O)O; MeBmt = C/C=C/C[C@@H](C)[C@@H](O)[C@H](NC)C(=O)O; ξThr(3S) = C[C@H](O[*:3])C(N[*:1])C(=O)[*:2]; X1 = CN([C@H](OCCN1CCOCC1)C(=O)[*:2])[*:1]; X2 = CN(C)CCO[C@H](C(=O)[*:2])N(C)[*:1]; NMeL = CN[C@@H](CC(C)C)C(=O)O; NMeV = CN[C@H](C(=O)O)C(C)C; Nva = CCC[C@H](N)C(=O)O

One experiment concerns permeabilized HepG2. As to the kind of experiment: Calcium retention capacity (CRC) assay in permeabilized HepG2. The experiment is classed as cell-based. The note with it: Homo sapiens.
The target in another experiment is Human CypA (Homo sapiens (Human), UniProt P62937). As to the kind of experiment: Cyclophilin peptidyl-prolyl isomerase functional assay (PPIase), CypA. The class given is biochemical. The following applies: human recombinant enzyme, 10° C.; read-out: Inhibition (Ki, nM) Human CypA.
The next experiment concerns the target Human CypD (Homo sapiens (Human), UniProt P30405). Description: Cyclophilin peptidyl-prolyl isomerase functional assay (PPIase), CypD. The experiment is classed as biochemical. The following applies: human recombinant enzyme, 10° C.; read-out: Inhibition (Ki, nM) Human CypD.
The target of experiment [1] is recombinant Calcineurin (CaN) (Homo sapiens (Human), UniProt P62937+P63098+Q08209). As to the kind of experiment: Calcineurin phosphatase inhibition assay with cyclophilin A. The class given is biochemical. The following applies: RII phosphopeptide substrate, read-out: CaN Inhibition (IC50, nM) + CypA.
Protocol: (§1) The compounds were supplied as a dry powder or oils and made up as a 10 mM stock solution in 100% DMSO. Subsequent dilutions were made in 100% DMSO for use in all assays.
(§2) Calcineurin Phosphatase Inhibition Assay with and without Cyclophilin A
(§3) This colorimetric 96 well assay is designed for inhibitor screening of recombinant Calcineurin (CaN). […] In a 96-well plate, two dilution series were prepared, one with the cyclophilin A enzyme (7-point) and another without (4-point). An assay buffer/calcineurin/calmodulin master mix was added followed by the phosphopeptide substrate (RII). After incubation at 30° C. the reaction was stopped by the addition of malachite green/molybdate reagent. The coloured complex formed with liberated phosphate was quantified by reading the absorbance at 620 nm. The blank corrected data was plotted against inhibitor concentration to determine an IC50 value.
Experiment [2] concerns the target recombinant Calcineurin (CaN) (Homo sapiens (Human), UniProt P63098+Q08209). As to the kind of experiment: Calcineurin phosphatase inhibition assay without cyclophilin A. The following applies: RII phosphopeptide substrate, read-out: CaN Inhibition (IC50, nM) − CypA. The experiment is classed as biochemical.
Protocol: as §1, §2, §3
The mark [3] stands for this setting: permeabilized HepG2, area under the curve, read-out: Calcium Retention Capacity EC50.

Sequence of Human CypD (P30405 30-207): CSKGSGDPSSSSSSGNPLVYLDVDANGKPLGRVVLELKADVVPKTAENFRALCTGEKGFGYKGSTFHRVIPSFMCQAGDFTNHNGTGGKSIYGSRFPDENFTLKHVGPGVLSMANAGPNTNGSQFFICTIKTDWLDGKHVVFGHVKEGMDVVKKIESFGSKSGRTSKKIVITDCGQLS
Protocol for Human CypA: as §1
(§4) Measurements were performed using an Agilent 8453 spectrophotometer. Assay buffer was cooled to 10° C. (with stirring) in a precision glass cuvette and inhibitor was added from a DMSO stock solution to afford a final concentration of <1% DMSO. A blank spectrum was obtained and then enzyme and substrate were added and the change in absorbance measured over 5 min. A first order rate was fitted to the absorbance data to obtain a rate constant (first 10 to 15 s were eliminated due to mixing). The catalytic rate was calculated from the enzymatic rate minus the background rate. The enzymatic rate constant, determined in duplicate at each inhibitor concentration, was plotted against inhibitor concentration and a non-linear fit by SigmaPlot generated a Ki.
Protocol for Human CypD: as §1, §4
Protocol for permeabilized HepG2: Calcium Retention Capacity (CRC) Assay in Permeabilized HepG2
HepG2 cells were permeabilised with 100 μM digitonin for 10 min in ice cold buffer containing 1 mM EGTA. Following two wash steps to remove the digitonin, the cells were plated into 96 well black and clear plates at 1e^6 cell per well in 180 μL assay buffer containing 0.5 μM Calcium Green 5N. Compounds dilutions were made in DMSO to 1000-fold the final concentration, diluted 1:100 in assay buffer and added to the assay as 20 μL per well. The assay buffer contained 5 mM glutamate and 2.5 mM malate. The cell plate was immediately run on the FLIPR Tetra™ which added 5 μL of 200 μM (5 μM) calcium chloride every 5 minutes whilst reading the plate every 3 seconds. The area under the curve at each concentration of compound was calculated. EC50 values were calculated.
The assay as described above measures the loss of inhibition based on the release of calcium, which is determined by increased intensity of fluorescence reporting of the calcium-binding dye used in the assay.

For orientation: EC50 means the concentration giving half of the maximal effect. Turning to `C/C=C/C[C@@H](C)[C@@H](O)[C@H]1C(=O)N[C@@H](CC)C(=O)N(C)[C@H](OCCN(C)C)C(=O)N(C)[C@@H](CC(C)C)C(=O)N[C@@H](C(C)C)C(=O)N(C)[C@@H](CC(C)C)C(=O)N[C@@H](C)C(=O)N[C@H](C)C(=O)N(C)[C@@H](CC(C)C)C(=O)N(C)[C@@H](CC(C)C)C(=O)N(C)[C@@H](C(C)C)C(=O)N1C` [Compound 1, reference compound], the EC50 in the experiment on permeabilized HepG2 (HepG2, read-out: Calcium Retention Capacity EC50 (nM)) was found to be 916 nM.
For orientation: Ki means a measure of affinity in units of concentration, obtained from inhibition or displacement. By IC50 is commonly meant the concentration that inhibits the measured activity by half. For `C/C=C/C[C@@H](C)[C@@H](O)[C@H]1C(=O)NC([C@H](C)O)C(=O)N(C)[C@H](OCCN(C)C)C(=O)N(C)[C@@H](CC(C)C)C(=O)N[C@@H](C(C)C)C(=O)N(C)[C@@H](CC(C)C)C(=O)N[C@@H](C)C(=O)N[C@H](C)C(=O)N(C)[C@@H](CC(C)C)C(=O)N(C)[C@@H](CC(C)C)C(=O)N(C)[C@@H](C(C)C)C(=O)N1C` (stereo partly drawn) [Compound 2] (cyclo(A[dA][NMeL][NMeL][NMeV][MeBmt][ξThr(3S)][X2][NMeL]V[NMeL])), the values for the Ki at Human CypA and at Human CypD were 50 nM and 78 nM, respectively. Besides, the IC50 is 5000 nM in experiment [1] and above 10000 nM in experiment [2]. The half-maximal effective concentration (EC50) in the experiment on permeabilized HepG2 (setting [3]) is above 10000 nM.
For the compound `C/C=C/C[C@@H](C)[C@@H](O)[C@H]1C(=O)N[C@@H](C(C)C)C(=O)N(C)[C@H](OCCN(C)C)C(=O)N(C)[C@@H](CC(C)C)C(=O)N[C@@H](C(C)C)C(=O)N(C)[C@@H](CC(C)C)C(=O)N[C@@H](C)C(=O)N[C@H](C)C(=O)N(C)[C@@H](CC(C)C)C(=O)N(C)[C@@H](CC(C)C)C(=O)N(C)[C@@H](C(C)C)C(=O)N1C` [Compound 3] (cyclo(A[dA][NMeL][NMeL][NMeV][MeBmt]V[X2][NMeL]V[NMeL])), the IC50 in experiment [1] is 1320 nM; in experiment [2], 5510 nM. For the same compound, in the experiment with permeabilized HepG2 (setting [3]), the EC50 amounted to 946 nM.
For `C/C=C/C[C@@H](C)[C@@H](O)[C@H]1C(=O)N[C@@H](C(C)C)C(=O)N(C)[C@H](OCCN2CCOCC2)C(=O)N(C)[C@@H](CC(C)C)C(=O)N[C@@H](C(C)C)C(=O)N(C)[C@@H](CC(C)C)C(=O)N[C@@H](C)C(=O)N[C@H](C)C(=O)N(C)[C@@H](CC(C)C)C(=O)N(C)[C@@H](CC(C)C)C(=O)N(C)[C@@H](C(C)C)C(=O)N1C` [Compound 4] (cyclo(A[dA][NMeL][NMeL][NMeV][MeBmt]V[X1][NMeL]V[NMeL])) the same measures were 1320 nM, 4190 nM and 320 nM.
As for `C/C=C/C[C@@H](C)C(=O)[C@H]1C(=O)N[C@@H](C(C)C)C(=O)N(C)[C@H](OCCN(C)C)C(=O)N(C)[C@@H](CC(C)C)C(=O)N[C@@H](C(C)C)C(=O)N(C)[C@@H](CC(C)C)C(=O)N[C@@H](C)C(=O)N[C@H](C)C(=O)N(C)[C@@H](CC(C)C)C(=O)N(C)[C@@H](CC(C)C)C(=O)N(C)[C@@H](C(C)C)C(=O)N1C` [Compound 5] (cyclo(A[dA][NMeL][NMeL][NMeV][NMeBmt(3-oxo)]V[X2][NMeL]V[NMeL])), the results for the Ki on Human CypA and at Human CypD were 23 nM and 17 nM, respectively. Besides, the IC50 in experiment [1] and in experiment [2] was above 10000 nM in each case. Also, the EC50 with permeabilized HepG2 (setting [3]) is above 10000 nM.
In the case of `C/C=C/C[C@@H](C)C(=O)[C@H]1C(=O)N[C@@H](C(C)C)C(=O)N(C)[C@H](OCCN2CCOCC2)C(=O)N(C)[C@@H](CC(C)C)C(=O)N[C@@H](C(C)C)C(=O)N(C)[C@@H](CC(C)C)C(=O)N[C@@H](C)C(=O)N[C@H](C)C(=O)N(C)[C@@H](CC(C)C)C(=O)N(C)[C@@H](CC(C)C)C(=O)N(C)[C@@H](C(C)C)C(=O)N1C` [Compound 6] (cyclo(A[dA][NMeL][NMeL][NMeV][NMeBmt(3-oxo)]V[X1][NMeL]V[NMeL])), the values for the Ki at Human CypA and at Human CypD were 90 nM and 150 nM, respectively. For the same compound, the IC50 in experiment [1] and in experiment [2] was above 10000 nM throughout. Further, the EC50 in the experiment on permeabilized HepG2 (setting [3]) was above 10000 nM.
Turning to `C/C=C/C[C@@H](C)[C@@H](O)[C@H]1C(=O)N[C@@H](CCC)C(=O)N(C)[C@H](OCCN(C)C)C(=O)N(C)[C@@H](CC(C)C)C(=O)N[C@@H](C(C)C)C(=O)N(C)[C@@H](CC(C)C)C(=O)N[C@@H](C)C(=O)N[C@H](C)C(=O)N(C)[C@@H](CC(C)C)C(=O)N(C)[C@@H](CC(C)C)C(=O)N(C)[C@@H](C(C)C)C(=O)N1C` [Compound 7] (cyclo(A[dA][NMeL][NMeL][NMeV][MeBmt][Nva][X2][NMeL]V[NMeL])), the IC50 in experiment [1] is 789 nM; in experiment [2], 3220 nM. Besides, the EC50 in the experiment with permeabilized HepG2 (setting [3]) amounted to 2370 nM.
On the same counts, the results for `C/C=C/C[C@@H](C)[C@@H](O)[C@H]1C(=O)N[C@@H](CCC)C(=O)N(C)[C@H](OCCN2CCOCC2)C(=O)N(C)[C@@H](CC(C)C)C(=O)N[C@@H](C(C)C)C(=O)N(C)[C@@H](CC(C)C)C(=O)N[C@@H](C)C(=O)N[C@H](C)C(=O)N(C)[C@@H](CC(C)C)C(=O)N(C)[C@@H](CC(C)C)C(=O)N(C)[C@@H](C(C)C)C(=O)N1C` [Compound 8] (cyclo(A[dA][NMeL][NMeL][NMeV][MeBmt][Nva][X1][NMeL]V[NMeL])) are 636 nM, 7830 nM and 1610 nM.
As to `C/C=C/C[C@@H](C)[C@@H](O)[C@H]1C(=O)N[C@@H](CC)C(=O)N(C)[C@H](OCC/N=C(\C)N(C)C)C(=O)N(C)[C@@H](CC(C)C)C(=O)N[C@@H](C(C)C)C(=O)N(C)[C@@H](CC(C)C)C(=O)N[C@@H](C)C(=O)N[C@H](C)C(=O)N(C)[C@@H](CC(C)C)C(=O)N(C)[C@@H](CC(C)C)C(=O)N(C)[C@@H](C(C)C)C(=O)N1C` [Compound 9], the Ki on Human CypA worked out at 11 nM; on Human CypD it was 8.2 nM. For the same compound, the IC50 in experiment [1] was found to be 2020 nM; in experiment [2] it was 3880 nM. Also, the EC50 with permeabilized HepG2 (setting [3]) came out at 468 nM.
For `C/C=C/C[C@@H](C)[C@@H](O)[C@H]1C(=O)N[C@@H](CC)C(=O)N(C)[C@H](OCC/N=C/N(C)C)C(=O)N(C)[C@@H](CC(C)C)C(=O)N[C@@H](C(C)C)C(=O)N(C)[C@@H](CC(C)C)C(=O)N[C@@H](C)C(=O)N[C@H](C)C(=O)N(C)[C@@H](CC(C)C)C(=O)N(C)[C@@H](CC(C)C)C(=O)N(C)[C@@H](C(C)C)C(=O)N1C` [Compound 10] the same measures were 14 nM, 9.7 nM, 1830 nM, 3710 nM and 3200 nM.
On the same counts, the results for `C/C=C/C[C@@H](C)[C@@H](O)[C@H]1C(=O)N[C@@H](CC)C(=O)N(C)[C@H](OCC(C)(C)N(C)C)C(=O)N(C)[C@@H](CC(C)C)C(=O)N[C@@H](C(C)C)C(=O)N(C)[C@@H](CC(C)C)C(=O)N[C@@H](C)C(=O)N[C@H](C)C(=O)N(C)[C@@H](CC(C)C)C(=O)N(C)[C@@H](CC(C)C)C(=O)N(C)[C@@H](C(C)C)C(=O)N1C` [Compound 11] are 25 nM, 6 nM, 616 nM, 1620 nM and 3320 nM.
Take `C/C=C/C[C@@H](C)[C@@H](O)[C@H]1C(=O)N[C@@H](CC)C(=O)N(C)[C@H](OCC2(N(C)C)CC2)C(=O)N(C)[C@@H](CC(C)C)C(=O)N[C@@H](C(C)C)C(=O)N(C)[C@@H](CC(C)C)C(=O)N[C@@H](C)C(=O)N[C@H](C)C(=O)N(C)[C@@H](CC(C)C)C(=O)N(C)[C@@H](CC(C)C)C(=O)N(C)[C@@H](C(C)C)C(=O)N1C` [Compound 12]: the Ki at Human CypA was found to be 6.5 nM; on Human CypD, 6 nM.
